Measurements reported in patent US9938335B2, “Glucagon and GLP-1 co-agonist compounds” (Eli Lilly and Company, priority 2015, dated 2018).
Where “and” joins values, the source holds several entries; their conditions need not be identical. Equal values may be shown once. Read-outs that look alike come from different tables or passages of the source. Marks after values point to notes of the source that are not given here.

Tests used:
rat GLP-1-R = target: T1, rat GLP-1-R (Rattus norvegicus, UniProt P32301); assay: Functional activation of the rat GLP-1-R in insulinoma cell line INS1 832-3 (cAMP); assay type: cell-based
T1 construct: stimulating cAMP production at the endogenous GLP-1 receptors; endogenous in cells; host or cells: INS1 832-3 rat insulinoma cells
T1 sequence (P32301 22-463): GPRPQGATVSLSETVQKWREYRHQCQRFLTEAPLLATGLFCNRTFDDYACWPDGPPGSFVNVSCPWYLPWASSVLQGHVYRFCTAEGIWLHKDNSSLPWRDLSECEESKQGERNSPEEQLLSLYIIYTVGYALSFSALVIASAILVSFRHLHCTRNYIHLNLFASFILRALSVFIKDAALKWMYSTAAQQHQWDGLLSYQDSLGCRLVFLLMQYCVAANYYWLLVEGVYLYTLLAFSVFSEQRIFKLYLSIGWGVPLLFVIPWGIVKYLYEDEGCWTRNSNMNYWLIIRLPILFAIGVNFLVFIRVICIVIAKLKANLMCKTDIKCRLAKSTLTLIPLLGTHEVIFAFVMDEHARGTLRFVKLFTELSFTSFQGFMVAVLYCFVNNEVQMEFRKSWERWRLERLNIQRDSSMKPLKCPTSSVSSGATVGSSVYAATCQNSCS
Experimental: Performance of the assay requires detachment of the cells from culture flasks using Enzyme Free Cell Stripper and pelleted by centrifugation at 1000 rpm for 5 minutes at room temperature. […] After 2 hours starvation, cells are treated with compound by adding 10 μl of 5× compound dilutions into the cell plates (n=2) and incubated in a 37° C., 5% CO2 incubator for 30 minutes.
cAMP concentration is measured using a HTRF cAMP assay kit (Cisbio): cAMP-d2 conjugate in cell lysis buffer (20 μl) followed by the antibody anti-cAMP-Eu^3+-Cryptate, also in cell lysis buffer (20 μl), is added to the cells of the plate.
The assay is performed with duplicated plates.

hGcg-R = hGcg-R (Homo sapiens, UniProt P47871); assay: Functional activation of hGcg-R in primary human hepatocytes (cAMP); assay type: cell-based; design: stimulating cAMP production at the endogenous Gcg receptors; endogenous in cells; host or cells: cryopreserved primary human hepatocytes; conditions: primary human hepatocytes
Experimental: Primary human hepatocytes are used to determine functional activity of compounds on stimulating cAMP production at the endogenous Gcg receptors. Vials of human primary hepatocytes are frozen in a liquid nitrogen tank. Upon removal, vials are thawed immediately in a water bath having a temperature of 37° C. Cell suspension is then transferred to 50 ml CHRM (Gibco/Life Technologies cat#CM7000 Cryopreserved Hepatocyte Recovery Medium).
The cell suspension is centrifuged at 1,000×g for 10 min. Cell pellets are resuspended in 5 ml of Plating Media after removing the CHRM by aspiration. The Plating Media is prepared by adding entire contents of CM3000 Supplement Packs to 500 ml Williams Media (Gibco/Life Technologies), followed by sterile filtration through a 0.22 μm membrane.
The cell density is counted on hemocytometer, by adding 100 μl of cell suspension to 100 μl Trypan Blue (HyClone Trypan Blue 0.04%, catalog number SV30084.01). The cell suspension is further diluted in the Plating Media to the final cell density of 0.8×10^6 cells per ml. […] 65 ml of the cell suspension is then added to each well of the Collagen coated 96-well plate to final cell density 50,000 cells per well. The cell plate is incubated in a 37° C., 5% CO2 incubator for 3-4 hours.
After 3-4 hours incubation, the media is aspirated and replaced with 100 ml Maintenance Media. The maintenance media is prepared by adding entire contents of CM4000 Supplement Packs to 500 ml Williams Media (Gibco/Life Technologies), followed by sterile filtration through a 0.22 μm membrane. The cell plate is returned to the 37° C., 5% CO2 incubator overnight in preparation for the cAMP assay.
The cell plate is removed from the incubator and the media is removed by gentle aspiration without disturbing the cell monolayer.
cAMP concentration is measured using a HTRF cAMP assay kit (Cisbio): cAMP-d2 conjugate in cell lysis buffer (40 μl) followed by the antibody anti-cAMP-Eu^3+-Cryptate, also in cell lysis buffer (40 μl), is added to the cells of the plate.

Human Gcg-R = target: T2, Human Gcg-R (Homo sapiens, UniProt P47871); assay: Functional hGcg-R assay (cAMP HTRF, HEK-293 clonal cell line); assay type: cell-based; conditions: cAMP, 60 minute incubation, 0.25% FBS, 0.05% BSA; geometric mean; read-out: Human Gcg-R EC50, nM ± SEM, (n)
T2 construct: expressed in transfected cells; host or cells: HEK-293 clonal cell line over-expressing the receptor
Experimental: After a 60 minute incubation at room temperature, the resulting increase in intracellular cAMP (adenosine 3′,5′-cyclic monophosphate) is quantitatively determined using the CisBio cAMP Dynamic 2 HTRF Assay Kit (62AM4PEJ). cAMP levels within the cell are detected by adding the cAMP-d2 conjugate in cell lysis buffer (20 μl) followed by the antibody anti-cAMP-Eu^3+-Cryptate, also in cell lysis buffer (20 μl).
A relative EC50 value and percent top (Emax) are derived by non-linear regression analysis using the percent maximal response vs. the concentration of peptide added, fitted to a four-parameter logistic equation (Genedata Screener®).
Means for EC50 are expressed as Geometric means±standard error of the mean (SEM) with the number of replicates (n) indicated in parenthesis. Means for Emax are expressed as the arithmetic mean±standard error. ND signifies that agonist activity was not detected.

[1] = Pharmacokinetics in cynomolgus monkeys; assay type: in vivo; conditions: for Cmax: read-out: C0 or Cmax
Experimental: The compounds are administered by a single intravenous or subcutaneous dose of 50 nmole/kg or 250 nmole/kg.
The plasma concentrations of compounds are determined by a LC/MS method. Briefly, a compound of the present invention is extracted from 100% monkey plasma (25 μl) using acetonitrile. Two distinct layers are formed upon centrifugation with the compound located in the liquid layer. An 80 μl aliquot of the supernatant was transferred to a 96-well plate, diluted with 150 μl of water and 25 μl of formic acid. The diluted sample (10 μl) was injected onto a Supelco Analytical Discovery BIO Wide Pore C5-3, 5 cm×1 mm, 3 um column. The column effluent is directed into a Thermo Q-Exactive mass spectrometer for detection and quantitation.

DIO mice (C57BL/6) [2] = assay: Glycemic control in DIO mice; assay type: in vivo, mouse; conditions: for Blood glucose (mg/dL) post-injection, Mean: male DIO mice, 25 nmol/kg sc once
Experimental: Five to six months old male DIO mice (C57BL/6) from Taconic Biosciences are used in this study. Animals are individually housed in a temperature-controlled (24° C.) facility with a 12 hour light/dark cycle (lights on 6:00), and free access to food and water. After two weeks acclimation to the facility, the mice are randomized to treatment groups (n=7/group) based on their body weight and blood glucose. Mice are injected subcutaneously once with vehicle or compounds (25 nmol/kg). Blood glucose is monitored 2 and 8 hours post-injection and then once a day at 08:00 for 4 days. OGTTs are performed at 44 and 78 hours post the peptide injection. Statistics are analyzed using ANOVA with Dunnett's comparison by JMP 6. Significance is denoted at p≤0.05 vs vehicle.

DIO mice (C57BL/6) [3] = assay: Effects on energy expenditure in DIO mice (indirect calorimetry); assay type: in vivo, mouse; conditions: for Cumulative Heat (Kcal/kg lean mass/3 day): test article 15 nmol/kg, semaglutide 60 nmol/kg sc every three days
Experimental: Seven to eight months old male DIO mice (C57BL/6) weighing 45-50 g are used in this study to assess the effect of compounds of the present invention on energy metabolism. Animals are individually housed in a temperature-controlled (24° C.) facility with a 12 hour light/dark cycle (lights on 22:00), and free access to food (TD95217)(Teklad) and water. After 2 weeks acclimation to the facility, mice are randomized to treatment groups (N=6/group) based on body weight so each group has similar starting mean body weight. Animals are placed in a PhenoMaster/LabMaster calorimeter (TSE Systems, Chesterfield, Mo.) for 8 days of acclimation.
Heat and […] (RER) are measured by indirect calorimetry as described using an open-circuit calorimetry system. RER is the ratio of the volume of CO2 produced (VCO2) to the volume of O2 consumed (VO2). Heat is calculated with lean body weight considered. The energy expenditure is kcal/kg/3 day and expressed as mean±SEM of 6 mice per group. Statistical significance is assessed by two-way ANOVA followed by Tukey's multiple comparison test.

[4] = Table 9: single IV 50 nmol/kg, individual animals
[5] = Table 9: single SC 50 nmol/kg, individual animals
[6] = Table 9: single SC 250 nmol/kg, individual animals
[7] = male, cynomolgus monkey, plasma, iv, 50 nmol/kg, Table 9: single IV 50 nmol/kg, mean
[8] = male, cynomolgus monkey, plasma, sc, 50 nmol/kg, Table 9: single SC 50 nmol/kg, individual animals
[9] = male, cynomolgus monkey, plasma, sc, 50 nmol/kg, Table 9: single SC 50 nmol/kg, mean
[10] = male, cynomolgus monkey, plasma, sc, 250 nmol/kg, Table 9: single SC 250 nmol/kg, individual animals
[11] = male, cynomolgus monkey, plasma, sc, 250 nmol/kg, Table 9: single SC 250 nmol/kg, mean

hGcg-R, sequence (P47871 26-477): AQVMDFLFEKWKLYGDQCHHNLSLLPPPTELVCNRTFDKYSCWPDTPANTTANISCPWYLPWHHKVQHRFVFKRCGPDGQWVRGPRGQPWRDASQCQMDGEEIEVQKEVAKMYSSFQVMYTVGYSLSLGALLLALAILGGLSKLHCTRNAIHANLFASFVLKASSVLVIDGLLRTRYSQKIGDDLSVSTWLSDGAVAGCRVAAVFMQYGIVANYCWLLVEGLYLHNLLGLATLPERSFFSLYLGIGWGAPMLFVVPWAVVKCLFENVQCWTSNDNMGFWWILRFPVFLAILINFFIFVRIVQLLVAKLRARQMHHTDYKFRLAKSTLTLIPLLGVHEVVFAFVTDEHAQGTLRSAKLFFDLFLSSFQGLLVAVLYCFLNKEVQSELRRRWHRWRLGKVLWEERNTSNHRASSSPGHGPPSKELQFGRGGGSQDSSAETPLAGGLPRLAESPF
T2 sequence (P47871 26-477): as above

EC50 (rat GLP-1-R; INS1 832-3 cells, cAMP, 30 minutes): 62 nM | Emax (rat GLP-1-R; INS1, percent of maximal response with native GLP-1 peptide at 300 nM): 104% | EC50 (hGcg-R; cAMP, 1 hour): 159 nM | EC50 (Human Gcg-R): 26.5 ± 2.2 nM | AUC(0-inf) [1, 4]: 93.174 µM·h | CL/F [1, 4]: 12.7 mL/day/kg and 13 mL/day/kg | Cmax [1, 4]: 1100 nM | T1/2 ([1]; Table 9: single IV 50 nmol/kg, male cynomolgus monkeys, individual animals): 131 h | CL/F ([1]; Table 9: single IV 50 nmol/kg, mean): 12.7 mL/day/kg | AUC(0-inf) [1, 5]: 82.792 µM·h | CL/F [1, 5]: 14.4 mL/day/kg | T1/2 [1, 5]: 106 h | Cmax [1, 5]: 452 nM | AUC(0-inf) [1, 6]: 540.175 µM·h | CL/F [1, 6]: 11 mL/day/kg | T1/2 [1, 6]: 104 h | Cmax [1, 6]: 3620 nM | AUC(0-inf) ([1]; cynomolgus monkey, plasma, sc, 250 nmol/kg, Table 9: single SC 250 nmol/kg, mean, read-out: AUC0-inf): 485 µM·h | CL/F ([1]; cynomolgus monkey, plasma, sc, 250 nmol/kg, Table 9: single SC 250 nmol/kg, mean, read-out: CL/F (converted)): 12.5 mL/day/kg | AUC(0-inf) ([1]; male, cynomolgus monkey, plasma, iv, 50 nmol/kg, Table 9: single IV 50 nmol/kg, individual animals, read-out: AUC0-inf): 94.8 µM·h | Cmax ([1]; male, cynomolgus monkey, plasma, iv, 50 nmol/kg, Table 9: single IV 50 nmol/kg, individual animals): 1020 nM | half-life ([1]; male, cynomolgus monkey, plasma, iv, 50 nmol/kg, Table 9: single IV 50 nmol/kg, male cynomolgus monkeys, individual animals): 88 h | half-life [1, 7]: 110 h | AUC(0-inf) ([1]; male, cynomolgus monkey, plasma, iv, 50 nmol/kg, Table 9: single IV 50 nmol/kg, mean, read-out: AUC0-inf): 94 µM·h | Cmax [1, 7]: 1060 nM | Tmax [1, 8]: 24 h | half-life [1, 8]: 137 h | AUC(0-inf) ([1]; male, cynomolgus monkey, plasma, sc, 50 nmol/kg, Table 9: single SC 50 nmol/kg, individual animals, read-out: AUC0-inf): 101 µM·h | Cmax [1, 8]: 474 nM | CL/F ([1]; male, cynomolgus monkey, plasma, sc, 50 nmol/kg, Table 9: single SC 50 nmol/kg, individual animals, read-out: CL/F (converted)): 12 mL/day/kg | Tmax [1, 9]: ~24 h | half-life [1, 9]: 122 h | AUC(0-inf) ([1]; male, cynomolgus monkey, plasma, sc, 50 nmol/kg, Table 9: single SC 50 nmol/kg, mean, read-out: AUC0-inf): 91.9 µM·h | Cmax [1, 9]: 463 nM | CL/F ([1]; male, cynomolgus monkey, plasma, sc, 50 nmol/kg, Table 9: single SC 50 nmol/kg, mean, read-out: CL/F (converted)): 13.2 mL/day/kg | Tmax [1, 10]: 12 h | half-life [1, 10]: 115 h | AUC(0-inf) ([1]; male, cynomolgus monkey, plasma, sc, 250 nmol/kg, Table 9: single SC 250 nmol/kg, individual animals, read-out: AUC0-inf): 430 µM·h | Cmax [1, 10]: 3640 nM | CL/F ([1]; male, cynomolgus monkey, plasma, sc, 250 nmol/kg, Table 9: single SC 250 nmol/kg, individual animals, read-out: CL/F (converted)): 13.9 mL/day/kg | Tmax [1, 11]: 12 h | half-life [1, 11]: 110 h | Cmax [1, 11]: 3630 nM
SMILES: CC(C)C[C@H](NC(=O)[C@H](CC(C)C)NC(=O)[C@H](Cc1c[nH]c2ccccc12)NC(=O)[C@H](CCC(=O)O)NC(=O)[C@@H](NC(=O)[C@H](Cc1ccccc1)NC(=O)[C@H](CCC(=O)O)NC(=O)[C@H](CCCCNC(=O)COCCOCCNC(=O)COCCOCCNC(=O)CC[C@H](NC(=O)CCCCCCCCCCCCCCCCCCC(=O)O)C(=O)O)NC(=O)[C@H](C)NC(=O)[C@H](CCCCN)NC(=O)[C@H](CCCCN)NC(=O)[C@H](CCC(=O)O)NC(=O)[C@H](CC(=O)O)NC(=O)[C@H](CC(C)C)NC(=O)[C@H](Cc1ccc(O)cc1)NC(=O)[C@H](CCCCN)NC(=O)[C@H](CO)NC(=O)[C@H](Cc1ccc(O)cc1)NC(=O)[C@H](CC(=O)O)NC(=O)[C@H](CO)NC(=O)[C@@H](NC(=O)[C@H](Cc1ccccc1)NC(=O)[C@@H](NC(=O)CNC(=O)[C@H](CCC(N)=O)NC(=O)C(C)(C)NC(=O)[C@@H](N)Cc1c[nH]cn1)[C@@H](C)O)[C@@H](C)O)C(C)C)C(=O)N[C@@H](CCC(=O)O)C(=O)NCC(=O)NCC(=O)N1CCC[C@H]1C(=O)N[C@@H](CO)C(=O)N[C@@H](CO)C(=O)NCC(N)=O [Compound 2]
cAMP production (rat GLP-1-R; INS1 832-3 cells, data not shown): increased cAMP production in a dose-dependent manner | cAMP production (hGcg-R; data not shown): increased cAMP production in a dose-dependent manner | 44 hours Glucose AUC (% of Vehicle) (DIO mice (C57BL/6) [2]; OGTT 44 hours post-injection, 25 nmol/kg sc): 39* % of Vehicle | 78 hours Glucose AUC (% of Vehicle) (DIO mice (C57BL/6) [2]; OGTT 78 hours post-injection, 25 nmol/kg sc): 66* % of Vehicle | glucose excursions post an oral glucose challenge (DIO mice (C57BL/6) [2]; OGTTs at 44 and 78 hours post injection, 25 nmol/kg): lower glucose excursions post an oral glucose challenge at both time points | Blood glucose (mg/dL) post-injection, Mean (DIO mice (C57BL/6) [2]; 2 hours post-injection): 112.7 mg/dL | Blood glucose (mg/dL) post-injection, Mean (DIO mice (C57BL/6) [2]; 8 hours post-injection): 87.4 mg/dL | Blood glucose (mg/dL) post-injection, Mean (DIO mice (C57BL/6) [2]; 24 hours post-injection): 101.1 mg/dL | Blood glucose (mg/dL) post-injection, Mean (DIO mice (C57BL/6) [2]; 48 hours post-injection): 101.3 mg/dL | Blood glucose (mg/dL) post-injection, Mean (DIO mice (C57BL/6) [2]; 72 hours post-injection): 97.6 mg/dL | Blood glucose (mg/dL) post-injection, Mean (DIO mice (C57BL/6) [2]; 96 hours post-injection): 115.0 mg/dL | metabolic rate (DIO mice (C57BL/6) [3]; DIO mice, chronic treatment): increased their metabolic rate starting from Week 2 | Cumulative Heat (Kcal/kg lean mass/3 day) (DIO mice (C57BL/6) [3]; Day 1 to Day 4): 1746 ± 96 Kcal/kg lean mass/3 day | Cumulative Heat (Kcal/kg lean mass/3 day) (DIO mice (C57BL/6) [3]; Day 4 to Day 7): 1778 ± 132 Kcal/kg lean mass/3 day | Cumulative Heat (Kcal/kg lean mass/3 day) (DIO mice (C57BL/6) [3]; Day 7 to Day 10): 2549 ± 129 Kcal/kg lean mass/3 day | Cumulative Heat (Kcal/kg lean mass/3 day) (DIO mice (C57BL/6) [3]; Day 10 to Day 13): 2568 ± 147 Kcal/kg lean mass/3 day
